Results taken from US8541455B2, “Derivatives of 2-pyridin-2-yl-pyrazol-3(2H)-one, preparation and therapeutic use thereof as HIF activators” (Sanofi, priority 2008, dated 2013).
Structures can show the parent of a compound that is named as a salt.

Legend:
[1] = test system: HIF1-alpha; assay: Measurement of the stabilization of HIF1-alpha in HEKEA cells (beta-galactosidase complementation, luminescence); assay type: cell-based, human; settings: HEKEA_HIF1-alphaPLBL cells, 6 hours incubation under normoxia; concentration that produces 50% of the maximum response of this same compound
Description: Furthermore, a subject of the invention is also a uniform test process for the direct measurement by beta-galactosidase complementation of the amount of HIF1-alpha protein in the nucleus of cells, preferably HEK cells, after treating the said cells with one or more test compounds, which consists in: • (a) inoculating, preferably in 384-well plates, the said cells in a suitable culture medium, preferably 1% foetal calf serum (abbreviated as FCS); • (b) adding the test compound(s) at a suitable concentration in a suitable solvent to the cells previously inoculated in the said culture medium; preferably the test compounds are diluted in 0.1% FCS; • (c) incubating the said cells thus prepared in an indicator at about 37° C., advantageously for about 6 hours; • (d) lysing the cells with a lysis buffer containing a chemiluminescent substrate for beta-galactosidase; • (e) incubating in the absence of light, before reading and measuring the luminescence, which is a function of the beta-galactosidase activity.
Many tests exist describing the indirect measurement of the activity of HIF via reporter gene systems (HRE-luciferase) or via the measurement of HIF-induced proteins (for example VEGF or EPO). Furthermore, the only tests that allow direct measurement of the amount of HIF1-alpha protein in cells are tests using antibodies, for instance Western blotting comprising phases of cell extraction (total lysates or nuclear extracts) that are consuming in terms of cells and time, thus limiting the compound screening capacity. The object was thus to develop a sensitive screening test, adaptable to 384-well plates, for directly measuring the amount of HIF1-alpha protein in the nucleus of cells. This test was established in HEK cells ([…]).
The test is a cell test based on the principle of enzyme complementation, the enzyme used herein being beta-galactosidase. HEKEA cells are HEK cells stably expressing, and restricted in their nucleus, mutant beta-galactosidase (omega fragment, also known as EA) (line sold by DiscoverX). This construct makes it possible to obtain beta-galactosidase activity only when the protein comprising the Prolabel complementation fragment has migrated into the nucleus.
The protein of interest comprising the Prolabel fragment is in this case an HIF1-alpha or HIF1-alpha mutated at the two prolines 402 and 564 replaced with alanines, is C-terminal fused via molecular biology (DiscoverX vector sold by Clontech) with the small complementation peptide fragment (Prolabel or ED, about 4 kDa). The vector coding for the chimeric protein HIF1-alpha_Prolabel is then transfected into HEKEA cells to obtain stable clones (HEKEA_HIF1-alphaPLBL).
The amount of C-terminal Prolabel-“labelled” HIF1-alpha protein obtained after treating the cells to hypoxia or compounds that are potentially HIF activators is measured by adding to the cells a lysis buffer containing a chemiluminescent substrate for beta-galactosidase.
The measurement of the beta-galactosidase activity will be proportional to the amount of Prolabel and thus of HIF1-alpha that has migrated into the nucleus of the cells.
• 1.3.1 Experiment Plan • 1) Inoculation of the cells on D0 • 2) Adherence for 24 hours under normoxia • 3) Preparation and addition of the products (Biomek 2000 and FX) on D+1 • 4) Incubation under normoxia for 6 hours • 5) Reading of the plates (by luminescence)
The cells are inoculated with Multidrop in white, opaque-bottomed 384-well plates (Greiner ref 3704), in 30 μl of culture medium (1% FCS) at 10 000 cells/well (cell plate). • 1.3.3 Treatment • Preparation of the Dilution Plate (DL Plate)
The test products are prepared at 3×10^−2 M in 100% DMSO and then diluted to 3×10^−4 M in medium containing 0.1% FCS (10 μl in 990 μl of MEM). They are then deposited by hand into column 12 of a round-bottomed 96-well plate (200 μl of each compound) known as the dilution plate (dl). […]

[2] = test system: EPO secretion by Hep3B cells; assay: Measurement of the secretion of EPO by Hep3B hepatocytes (ELISA on supernatant); assay type: cell-based; settings: Homo sapiens, 18 hours incubation under normoxia, EPO in supernatant, 50% of the maximum response of this same compound
Description: (§1) 2. Measurement of the Secretion of VEGF and EPO by Hep3B Hepatocytes 2.1. Object
(§2) HIF is a transcription factor involved in the adaptation of cells to hypoxia. Since the genes activated by HIF are involved in the adaptive response of cells to hypoxia and of tissues to ischaemia, the object is to identify and characterize compounds that stabilize HIF1-alpha in cells in order to amplify or mimic its beneficial effect. HIF1-alpha was identified following the analysis of the EPO gene promoter, which makes this protein one of the first markers of HIF1-alpha activation. Moreover, VEGF is also identified in the literature as one of the main markers of HIF activation. It is for this reason that measurement of these two proteins was selected for characterizing compounds that are HIF activators in Hep3B cells.
(§3) The object was thus to develop a sensitive screening test, adaptable to 96-well plates, for directly measuring the amount of VEGF and EPO in the supernatant of the Hep3B cells (cells derived from a human hepatocarcinoma) in response to the potential HIF activators.
(§4) The test is an ELISA test for measuring VEGF and EPO in the supernatant of Hep3B cells treated under hypoxia or with deferoxamine as controls or with the potential HIF activators. The test was adapted to a 96-well plate, allowing greater compound screening capacity.
(§5) • 2.3.1 Experiment Plan • 1) Inoculation of the cells on D0 • 2) Adherence for 6 hours under normoxia • 3) Preparation and addition of the products (Biomek 2000 and FX) • 4) Incubation under normoxia for 18 hours • 5) EPO and VEGF assay in the supernatant on D+1 • 2.3.2 Inoculation of the Cells
(§6) The cells are subcultured into 100 μl of culture medium (10% FCS) in black, opaque-bottomed 96-well plates (reference Costar 3916) at 30 000 cells/well, with Multidrop. • 2.3.3 Treatment of the Cells
(§7) The test products are prepared at 10^−2 M in 100% DMSO and then diluted to […] in medium containing 0.1% FCS (6 μl in 194 μl of MEM). 200 μl of each compound are deposited in column 12 of a 96-well plate. Dilution ranges from […] to 3×10^−8M are prepared with Biomek 2000 (programme: range of 9 points in series). 100 μl of MEM 0.1% FCS and Deferoxamine 5×10^−3M are added as controls to column 3 and, respectively, to wells A,B,C,D and wells E,F,G,H • DL Plate Distribution in Cell Plates
(§8) The medium of the cells inoculated the day before into 96-well plates is changed for 90 μl of medium containing 0.1% FCS and 10 μl are distributed with FX 96 from the 96-well DL plates to the cell plates.
(§9) The cell plates thus treated are placed for 18 hours in an incubator at 37° C. (ambient O2, 6% CO2).
(§10) The supernatants (80 μl) of the Hep3B cells in the 96-well plates treated with the potential HIF activators are recovered with a multichannel pipette for simultaneous assay of the VEGF and the EPO by ELISA according to the supplier's instructions (Kit EPO Mesoscale (ref K15122B-2)).
(§11) The activating activity of a compound with respect to HIF is given by the concentration that produces 50% of the maximum response of this same compound in Table IV below.

[3] = test system: VEGF secretion by Hep3B cells; assay: Measurement of the secretion of VEGF by Hep3B hepatocytes (ELISA on supernatant); assay type: cell-based; settings: Homo sapiens, 18 hours incubation under normoxia, VEGF in supernatant, 50% of the maximum response of this same compound
Description: as §1, §2, §3, §4, §5, §6, §7, §8, §9, §10, §11

**Q.** For `CCN(c1ccccc1)S(=O)(=O)c1ccc(-n2[nH]c(C)c(Cc3ccc(Cl)cc3Cl)c2=O)nc1` [Compound 14], which EC50 [1] is on record?
**A.** 3.8 µM

**Q.** And the melting point?
**A.** 178 °C

**Q.** What about the EC50 [2] of the same compound?
**A.** 0.3 µM

**Q.** Which EC50 [3] does the source give for `CCN(c1ccccc1)S(=O)(=O)c1ccc(-n2[nH]c(C)c(Cc3c(F)cccc3Cl)c2=O)nc1` [Compound 20, 6-[4-(2-chloro-6-fluorobenzyl)-3-methyl-5-oxo-2,5-dihydro-1H-pyrazol-1-yl]-N-ethyl-N-phenylpyridine-3-sulfonamide] here?
**A.** 1.1 µM

**Q.** And the EC50 [2]?
**A.** 1 µM

**Q.** Which EC50 [2] does the source give for `CCN(c1ccccc1)S(=O)(=O)c1ccc(-n2[nH]c(C)c(Cc3cccc(COC)c3)c2=O)nc1` [Compound 34, N-ethyl-6-{4-[3-(methoxymethyl)benzyl]-3-methyl-5-oxo-2,5-dihydro-1H-pyrazol-1-yl}-N-phenylpyridine-3-sulfonamide] here?
**A.** 0.9 µM

**Q.** Which results are given for `CCN(c1ccccc1)S(=O)(=O)c1ccc(-n2[nH]c(C)c(Cc3cccc(OCCOC)c3)c2=O)nc1` [Compound 38, N-ethyl-6-{4-[3-(2-methoxyethoxy)benzyl]-3-methyl-5-oxo-2,5-dihydro-1H-pyrazol-1-yl}-N-phenylpyridine-3-sulfonamide]?
**A.** EC50 [1]: 4.7 µM; melting point: 126 °C; EC50 [2]: 1 µM

**Q.** With `CCN(c1ccccc1)S(=O)(=O)c1ccc(-n2[nH]c(C)c(Cc3ccc(S(C)(=O)=O)cc3)c2=O)nc1` [Compound 39] as the compound, how does the EC50 [1] read?
**A.** 1.8 µM

**Q.** What about the melting point of the same compound?
**A.** 224 °C

**Q.** What about the EC50 [2] of the same compound?
**A.** 2 µM

**Q.** With `CCN(c1ccccc1)S(=O)(=O)c1ccc(-n2[nH]c(C)c(Cc3ccccc3)c2=O)nc1` [Compound 42] as the compound, how does the EC50 [1] read?
**A.** 4.8 µM

**Q.** And the melting point?
**A.** 212 °C

**Q.** What about the EC50 [3] of the same compound?
**A.** 1.3 µM

**Q.** And the EC50 [2]?
**A.** 1.1 µM

**Q.** With `CCN(c1ccccc1)S(=O)(=O)c1ccc(-n2[nH]c(C)c(Cc3cccnc3)c2=O)nc1` [Compound 43] as the compound, how does the EC50 [1] read?
**A.** 3.1 µM

**Q.** What about the EC50 [3] of the same compound?
**A.** 1.7 µM

**Q.** What about the EC50 [2] of the same compound?
**A.** 1.5 µM

**Q.** For `CCN(c1ccccc1)S(=O)(=O)c1ccc(-n2[nH]c(C)c(Cc3cc(OC)ccc3OC)c2=O)nc1` [Compound 44], which EC50 [1] is on record?
**A.** 3.1 µM

**Q.** What about the melting point of the same compound?
**A.** 140 °C

**Q.** What about the EC50 [3] of the same compound?
**A.** 2.1 µM

**Q.** And the EC50 [2]?
**A.** 1.9 µM

**Q.** What does the source list for `CCN(c1ccccc1)S(=O)(=O)c1ccc(-n2[nH]c(C)c(Cc3cc(OC)cc(OC)c3)c2=O)nc1` [Compound 47]?
**A.** EC50 [1]: 1.1 µM; melting point: 162 °C; EC50 [3]: 2.8 µM; EC50 [2]: 2 µM

**Q.** For `CCN(c1ccccc1)S(=O)(=O)c1ccc(-n2[nH]c(C)c(Cc3ccc(O)cc3)c2=O)nc1` [Compound 48], which EC50 [1] is on record?
**A.** 4.3 µM

**Q.** And the melting point?
**A.** 208 °C

**Q.** And the EC50 [3]?
**A.** 1.9 µM

**Q.** And the EC50 [2]?
**A.** 1.1 µM

**Q.** Which results are given for `CCN(c1ccccc1)S(=O)(=O)c1ccc(-n2[nH]c(C)c(Cc3cccc(OCCN(C)C)c3)c2=O)nc1` [Compound 56, 6-(4-{3-[2-(dimethylamino)ethoxy]benzyl}-3-methyl-5-oxo-2,5-dihydro-1H-pyrazol-1-yl)-N-ethyl-N-phenylpyridine-3-sulfonamide hydrochloride]?
**A.** EC50 [1]: 2.1 µM; EC50 [3]: 2.5 µM; EC50 [2]: 2 µM

**Q.** Which EC50 [1] does the source give for `CCN(c1ccccc1)S(=O)(=O)c1ccc(-n2[nH]c(C)c(CCc3ccccc3)c2=O)nc1` [Compound 74, N-ethyl-6-[3-methyl-5-oxo-4-(2-phenylethyl)-2,5-dihydro-1H-pyrazol-1-yl]-N-phenylpyridine-3-sulfonamide] here?
**A.** 3.7 µM

**Q.** What about the melting point of the same compound?
**A.** 158 °C

**Q.** What about the EC50 [2] of the same compound?
**A.** 0.3 µM

**Q.** Which results are given for `CCN(c1ccccc1)S(=O)(=O)c1ccc(-n2[nH]cc(Cc3ccccc3)c2=O)nc1` [Compound 93, 6-(4-benzyl-5-oxo-2,5-dihydro-1H-pyrazol-1-yl)-N-ethyl-N-phenylpyridine-3-sulfonamide]?
**A.** EC50 [1]: 0.35 µM; EC50 [3]: 0.4 µM; EC50 [2]: 0.4 µM

**Q.** With `CC(C)(C)NS(=O)(=O)c1ccc(-n2[nH]cc(Cc3cccnc3)c2=O)nc1` [Compound 98B, N-tert-butyl-6-[5-oxo-4-(pyridin-3-ylmethyl)-2,5-dihydro-1H-pyrazol-1-yl]pyridine-3-sulfonamide hydrochloride] as the compound, how does the EC50 [1] read?
**A.** 2.5 µM

**Q.** With `Cc1[nH]n(-c2ccccn2)c(=O)c1Cc1ccc(N(C)C)cc1` [Compound 189] as the compound, how does the melting point read?
**A.** 110 °C

**Q.** With `COc1ccc(Cc2c(C)[nH]n(-c3ccccn3)c2=O)cc1` [Compound 191] as the compound, how does the melting point read?
**A.** 96 °C

**Q.** Which melting point does the source give for `COc1ccccc1Cc1c(C)[nH]n(-c2ccccn2)c1=O` [Compound 192] here?
**A.** 254 °C

**Q.** Which melting point does the source give for `COc1cccc(Cc2c(C)[nH]n(-c3ccccn3)c2=O)c1` [Compound 193] here?
**A.** 120 °C

**Q.** For `CCc1[nH]n(-c2ccccn2)c(=O)c1Cc1ccccc1` [Compound 195], which melting point is on record?
**A.** 76 °C

**Q.** Which melting point does the source give for `Cc1[nH]n(-c2ccccn2)c(=O)c1CCc1ccccc1` [Compound 196] here?
**A.** 128 °C

**Q.** For `Cc1[nH]n(-c2ccc(S(=O)(=O)c3ccccc3)cn2)c(=O)c1Cc1cccnc1` [Compound 197, 5-methyl-2-[5-(phenylsulfonyl)pyridin-2-yl]-4-(pyridin-3-ylmethyl)-1,2-dihydro-3H-pyrazol-3-one], which melting point is on record?
**A.** 176 °C

**Q.** Which melting point does the source give for `CC(C)(C)COC(=O)c1ccc(-n2[nH]cc(Cc3cccnc3)c2=O)nc1` [Compound 198, 2,2-dimethylpropyl 6-[5-oxo-4-(pyridin-3-ylmethyl)-2,5-dihydro-1H-pyrazol-1-yl]pyridine-3-carboxylate] here?
**A.** 160 °C
